Reference: US20230295118A1 (EnhancedBio Inc., priority 2022, published 2023)
Where two headings read alike, the source gives them in different places.

Tests used:
Assay type in all cases: cell-based
[1] = biological target: T1, CDK4 (Homo sapiens, UniProt P11802); assay: CDK4 degradation (DC50, Dmax)
T1 construct: endogenous in cells

[2] = biological target: T2, CDK6 (Homo sapiens, UniProt Q00534); assay: CDK6 degradation (DC50, Dmax)
T2 construct: endogenous in cells

[3] = test system: mantle cell lymphoma cell (Mino or JeKo-1); assay: Antiproliferative effect, MTS cell viability assay
How it was run: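 Mino cells treated with compounds at 0, 0.0001, 0.001, 0.01, 0.1, 1 μM for 72 h; palbociclib and abemaciclib as positive controls. Viability by MTS, formazan absorbance read at 490 nm.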

[4] = 72 h, mantle cell lymphoma cell (Mino or JeKo-1), MTS assay, read-out: IC50 (anti-proliferation)

T2 sequence (Q00534 whole entry): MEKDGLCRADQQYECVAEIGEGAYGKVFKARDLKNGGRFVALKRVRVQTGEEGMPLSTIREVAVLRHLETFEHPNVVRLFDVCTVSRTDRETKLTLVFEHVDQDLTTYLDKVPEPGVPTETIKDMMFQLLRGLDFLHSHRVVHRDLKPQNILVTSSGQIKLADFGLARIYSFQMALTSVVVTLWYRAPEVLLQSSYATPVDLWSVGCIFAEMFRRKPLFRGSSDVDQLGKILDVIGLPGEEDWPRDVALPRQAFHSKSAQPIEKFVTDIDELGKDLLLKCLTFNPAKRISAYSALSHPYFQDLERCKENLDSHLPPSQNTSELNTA
T1 sequence (P11802 whole entry): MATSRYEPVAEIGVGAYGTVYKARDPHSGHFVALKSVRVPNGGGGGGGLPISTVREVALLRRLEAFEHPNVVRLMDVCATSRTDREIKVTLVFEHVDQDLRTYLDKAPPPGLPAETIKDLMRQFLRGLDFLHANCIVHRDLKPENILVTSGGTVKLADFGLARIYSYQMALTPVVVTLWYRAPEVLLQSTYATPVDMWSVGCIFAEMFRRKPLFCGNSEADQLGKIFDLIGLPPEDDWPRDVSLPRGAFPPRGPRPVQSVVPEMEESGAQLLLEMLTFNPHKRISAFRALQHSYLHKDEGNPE

DC50 [1] [nM] | Dmax [1] [%] | DC50 [2] [nM] | Dmax [2] [%] | IC50 [3, 4] [nM] | Dmax CDK4 [1] | Dmax CDK6 [2] | IC50 ([3]; mantle cell lymphoma cell (Mino or JeKo-1); MTS assay, 72 h; read-out: IC50 (anti-proliferation)) [nM] | SMILES
< 50 | > 80 | 50 to 200 | > 80 | < 50 |  |  |  | Cc1nc2c(F)cc(-c3nc(Nc4ccc(CN5CCN(CC6CCN(c7ccc(NC8CCC(=O)NC8=O)cc7)CC6)CC5)cn4)ncc3F)cc2n1C(C)C (centres unmarked) [Compound 152, 3-((4-(4-((4-((6-((5-fluoro-4-(4-fluoro-1-isopropyl-2-methyl-1H-benzo[d]imidazol-6-yl)pyrimidin-2-yl)amino)pyridin-3-yl)methyl)piperazin-1-yl)methyl)piperidin-1-yl)phenyl)amino) piperidine-2,6-dione]
50 to 200 | > 60 | > 200 | > 60 | 50 to 200 |  |  |  | Cc1nc2c(F)cc(-c3nc(Nc4ccc(CN5CCN(C(=O)C6CCN(c7ccc8c(c7)CN(C7CCC(=O)NC7=O)C8=O)CC6)CC5)cn4)ncc3F)cc2n1C(C)C (centres unmarked) [Compound 154]
50 to 200 | > 50 | > 200 | > 50 | 50 to 200 |  |  |  | Cc1nc2c(F)cc(-c3nc(Nc4ccc(CN5CCN(C(=O)C6CCN(c7ccc(C(=O)NC8CCC(=O)NC8=O)cc7)CC6)CC5)cn4)ncc3F)cc2n1C(C)C (centres unmarked) [Compound 155, N-(2,6-dioxopiperidin-3-yl)-4-(4-(4-((6-((5-fluoro-4-(4-fluoro-1-isopropyl-2-methyl-1H-benzo[d]imidazol-6-yl)pyrimidin-2-yl)amino)pyridin-3-yl)methyl)piperazine-1-carbonyl)piperidin-1-yl)benzamide]
50 to 200 | > 60 | 50 to 200 | > 80 | 50 to 200 |  |  |  | Cc1nc2c(F)cc(-c3nc(Nc4ccc(CN5CCN(C(=O)C6CCN(c7ccc(NC8CCC(=O)NC8=O)cc7)CC6)CC5)cn4)ncc3F)cc2n1C(C)C (centres unmarked) [Compound 156, 3-((4-(4-(4-((6-((5-fluoro-4-(4-fluoro-1-isopropyl-2-methyl-1H-benzo[d]imidazol-6-yl)pyrimidin-2-yl)amino)pyridin-3-yl)methyl)piperazine-1-carbonyl)piperidin-1-yl)phenyl)amino) piperidine-2,6-dione]
< 50 | > 80 | < 50 | > 80 | < 50 |  |  |  | Cc1nc2c(F)cc(-c3nc(Nc4ccc(CC5CCN(CC6CCN(c7ccc8c(c7)C(=O)N(C7CCC(=O)NC7=O)C8=O)CC6)CC5)cn4)ncc3F)cc2n1C(C)C (centres unmarked) [Compound 157, 2-(2,6-dioxopiperidin-3-yl)-5-(4-((4-((6-((5-fluoro-4-(4-fluoro-1-isopropyl-2-methyl-1H-benzo[d]imidazol-6-yl)pyrimidin-2-yl)amino)pyridin-3-yl)methyl)piperidin-1-yl)methyl)piperidin-1-yl)isoindoline-1,3-dione]
50 to 200 | > 80 | 50 to 200 | > 80 | < 50 |  |  |  | Cc1nc2c(F)cc(-c3nc(Nc4ccc(CC5CCN(CC6CCN(c7ccc8c(c7)CN(C7CCC(=O)NC7=O)C8=O)CC6)CC5)cn4)ncc3F)cc2n1C(C)C (centres unmarked) [Compound 158, 3-(5-(4-((4-((6-((5-fluoro-4-(4-fluoro-1-isopropyl-2-methyl-1H-benzo[d]imidazol-6-yl)pyrimidin-2-yi)amino)pyridin-3-yl)methyl)piperidin-1-yl)methyl)piperidin-1-yl)-1-oxoisoindolin-2-yl)piperidine-2,6-dione]
< 50 | > 80 | < 50 | > 80 | < 50 |  |  |  | Cc1nc2c(F)cc(-c3nc(Nc4ccc(CC5CCN(CC6CCN(c7ccc(C(=O)NC8CCC(=O)NC8=O)cc7)CC6)CC5)cn4)ncc3F)cc2n1C(C)C (centres unmarked) [Compound 159, N-(2,6-dioxopiperidin-3-yl)-4-(4-((4-((6-((5-fluoro-4-(4-fluoro-1-isopropyl-2-methyl-1H-benzo[d]imidazol-6-yl)pyrimidin-2-yl)amino)pyridin-3-yl)methyl)piperidin-1-yl)methyl)piperidin-1-yl)benzamide]
< 50 | > 80 | < 50 | > 80 | < 50 |  |  |  | Cc1nc2c(F)cc(-c3nc(Nc4ccc(CC5CCN(CC6CCN(c7ccc(NC8CCC(=O)NC8=O)cc7)CC6)CC5)cn4)ncc3F)cc2n1C(C)C (centres unmarked) [Compound 160, 3-((4-(4-((4-((6-((5-fluoro-4-(4-fluoro-1-isopropyl-2-methyl-1H-benzo[d]imidazol-6-yl)pyrimidin-2-yl)amino)pyridin-3-yl)methyl)piperidin-1-yl)methyl)piperidin-1-yl)phenyl)amino) piperidine-2,6-dione]
50 to 200 | > 60 | > 200 | > 60 | 50 to 200 |  |  |  | Cc1nc2c(F)cc(-c3nc(Nc4ccc(CC5CCN(C(=O)C6CCN(c7ccc8c(c7)C(=O)N(C7CCC(=O)NC7=O)C8=O)CC6)CC5)cn4)ncc3F)cc2n1C(C)C (centres unmarked) [Compound 161, 2-(2,6-dioxopiperidin-3-yl)-5-(4-(4-((6-((5-fluoro-4-(4-fluoro-1-isopropyl-2-methyl-1H-benzo[d]imidazol-6-yl)pyrimidin-2-yl)amino)pyridin-3-yl)methyl)piperidine-1-carbonyl)piperidin-1-yl)isoindoline-1,3-dione]
50 to 200 | > 60 | > 200 | > 60 | 50 to 200 |  |  |  | Cc1nc2c(F)cc(-c3nc(Nc4ccc(CC5CCN(C(=O)C6CCN(c7ccc8c(c7)CN(C7CCC(=O)NC7=O)C8=O)CC6)CC5)cn4)ncc3F)cc2n1C(C)C (centres unmarked) [Compound 162, 3-(5-(4-(4-((6-((5-fluoro-4-(4-fluoro-1-isopropyl-2-methyl-1H-benzo[d]imnidazol-6-yl)pyrimidin-2-yl)amino)pyridin-3-yl)methyl)piperidine-1-carbonyl)piperidin-1-yl)-1-oxoisoindolin-2-yl)piperidine-2,6-dione]
50 to 200 | > 60 | 50 to 200 | > 80 | 50 to 200 |  |  |  | Cc1nc2c(F)cc(-c3nc(Nc4ccc(CC5CCN(C(=O)C6CCN(c7ccc(NC8CCC(=O)NC8=O)cc7)CC6)CC5)cn4)ncc3F)cc2n1C(C)C (centres unmarked) [Compound 164, 3-((4-(4-(4-((6-((5-fluoro-4-(4-fluoro-1-isopropyl-2-methyl-1H-benzo[d]imidazol-6-yl)pyrimidin-2-yl)amino)pyridin-3-yl)methyl)piperidine-1-carbonyl)piperidin-1-yl)phenyl)amino) piperidine-2,6-dione]
50 to 200 | > 80 | 50 to 200 | > 80 | < 50 |  |  |  | Cc1nc2c(F)cc(-c3nc(Nc4ccc(CN5CCN(C6CCN(c7ccc8c(c7)C(=O)N(C7CCC(=O)NC7=O)C8=O)CC6)CC5)cn4)ncc3F)cc2n1C(C)C (centres unmarked) [Compound 165, 2-(2,6-dioxopiperidin-3-yl)-5-(4-(4-((6-((5-fluoro-4-(4-fluoro-1-isopropyl-2-methyl-1H-benzo[d]imidazol-6-yl)pyrimidin-2-yl)amino)pyridin-3-yl)methyl)piperazin-1-yl)piperidin-1-yl)isoindoline-1,3-dione]
50 to 200 | > 80 | 50 to 200 | > 60 | < 50 |  |  |  | Cc1nc2c(F)cc(-c3nc(Nc4ccc(CN5CCN(C6CCN(c7ccc8c(c7)CN(C7CCC(=O)NC7=O)C8=O)CC6)CC5)cn4)ncc3F)cc2n1C(C)C (centres unmarked) [Compound 166, 3-(5-(4-(4-((6-((5-fluoro-4-(4-fluoro-1-isopropyl-2-methyl-1H-benzo[d]imidazol-6-yl)pyrimidin-2-yl)amino)pyridin-3-yl)methyl)piperazin-1-yl)piperidin-1-yl)-1-oxoisoindolin-2-yl)piperidine-2,6-dione]
50 to 200 |  | 50 to 200 |  |  | B (B: >60%) | B (B: >60%) | 50 to 200 | Cc1nc2c(F)cc(-c3nc(Nc4ccc(CN5CCN(C6CCN(c7ccc(C(=O)NC8CCC(=O)NC8=O)cc7)CC6)CC5)cn4)ncc3F)cc2n1C(C)C (centres unmarked) [Compound 167, N-(2,6-dioxopiperidin-3-yl)-4-(4-(4-((6-((5-fluoro-4-(4-fluoro-1-isopropyl-2-methyl-1H-benzo[d]imidazol-6-yl)pyrimidin-2-yl)amino)pyridin-3-yl)methyl)piperazin-1-yl)piperidin-1-yl)benzamide]
50 to 200 | > 80 | < 50 | > 80 | < 50 |  |  |  | Cc1nc2c(F)cc(-c3nc(Nc4ccc(CN5CCN(C6CCN(c7ccc(NC8CCC(=O)NC8=O)cc7)CC6)CC5)cn4)ncc3F)cc2n1C(C)C (centres unmarked) [Compound 168, 3-((4-(4-(4-((6-((5-fluoro-4-(4-fluoro-1-isopropyl-2-methyl-1H-benzo[d]imidazol-6-yl)pyrimidin-2-yl)amino)pyridin-3-yl)methyl)piperazin-1-yl)piperidin-1-yl)phenyl)amino) piperidine-2,6-dione]
50 to 200 | > 80 | 50 to 200 | > 80 | < 50 |  |  |  | Cc1nc2c(F)cc(-c3nc(Nc4ccc(CC5CCN(C6CCN(c7ccc8c(c7)C(=O)N(C7CCC(=O)NC7=O)C8=O)CC6)CC5)cn4)ncc3F)cc2n1C(C)C (centres unmarked) [Compound 169, 2-(2,6-dioxopiperidin-3-yl)-5-(4-((6-((5-fluoro-4-(4-fluoro-1-isopropyl-2-methyl-1H-benzo[d]imidazol-6-yl)pyrimidin-2-yl)amino)pyridin-3-yl)methyl)-[1,4′-bipiperidin]-1′-yl)isoindoline-1,3-dione]
